Laboratory results: ChEMBL document CHEMBL5537164, “Discovery of Potent, Orally Bioavailable, Tricyclic NLRP3 Inhibitors” (J Med Chem, 2024)
pIC50: −log10 of the molar value. In brackets after ≈: the same amount, converted by molar mass.

Assays:
[1] = molecular target: Nuclear factor NF-kappa-B complex (Homo sapiens, UniProt P19838+Q00653+Q04206); experiment: Inhibition of NF-kappaB in PMA-differentiated human THP-1 cells assessed as reduction in TNF-alpha release preincubated with compound for 1 hrs followed by Pam3CSK4 stimulation and measured after 3 hrs by HTRF assay; format: cell-based
Cytochrome P450 2C9 = Cytochrome P450 2C9 (Homo sapiens, UniProt P11712); experiment: Inhibition of CYP2C9 (unknown origin); format: ADME
[2] = Clearance in Beagle dog assessed as hepatic blood flow at 1 mg/kg, po or 0.1 mg/kg, iv measured after 24 hrs by LC-MS/MS analysis; format: ADME, organism-based, Canis lupus familiaris, Liver; conditions: in vivo
[3] = Half-life in Sprague-Dawley rat at 10 mg/kg, po or 1 mg/kg, iv measured after 24 hrs by LC-MS/MS analysis; format: ADME, organism-based; conditions: in vivo
[4] = Volume of distribution at steady state in Beagle dog at 1 mg/kg, po or 0.1 mg/kg, iv measured after 24 hrs by LC-MS/MS analysis; format: ADME, organism-based, Canis lupus familiaris; conditions: in vivo
[5] = Metabolic stability in mouse liver microsomes assessed as intrinsic clearance; format: ADME, Microsome; conditions: read-out: CLH
[6] = Drug metabolism in dog liver microsomes assessed as N-demethylation of piperidine ring mediated metabolite formation; format: ADME, Canis lupus familiaris, Microsome
[7] = Thermodynamic solubility of compound at pH 6.8; format: physicochemical; conditions: buffer, read-out: Therm_solubility
[8] = Drug metabolism in human liver microsome assessed as thiophene oxidation mediated metabolite formation; format: ADME; conditions: microsomes
[9] = Dose normalized AUC in C57BL/6 mouse at 3 mg/kg, po measured after 24 hrs by LC-MS/MS analysis; format: ADME, organism-based; conditions: in vivo
[10] = Drug concentration in blood of C57BL/6 mouse model of acute peritonitis at 50 mg/kg, po preadministered with compound for 1 hrs followed by LPS stimulation for 2 hrs and measured 15 mins after ATP addition by HPLC-MS/MS analysis; format: ADME, organism-based; conditions: whole blood, read-out: Ct
[11] = Protein binding in rat plasma; format: ADME, cell-free; conditions: read-out: PPB (converted)
Cytochrome P450 3A4 = Cytochrome P450 3A4 (Homo sapiens, UniProt P08684); experiment: Inhibition of CYP3A4 (unknown origin); format: ADME
[12] = Protein binding in human plasma; format: ADME, cell-free; conditions: read-out: PPB (converted)
[13] = In vivo inhibition of NLRP3 in LPS/ATP-induced C57BL/6 mouse model of acute peritonitis assessed as reduction in IL-1beta level at 100 mg/kg, po preadministered with compound for 1 hrs followed by LPS stimulation for 2 hrs and measured 15 mins after ATP addition by ELISA relative to control; format: functional; conditions: time 3.25 hrs
[14] = Drug metabolism in human liver microsomes assessed as N-demethylation of piperidine ring mediated metabolite formation; format: ADME, Microsome
[15] = Dose normalized AUC in Sprague-Dawley rat at 10 mg/kg, po measured after 24 hrs by LC-MS/MS analysis; format: ADME, organism-based; conditions: in vivo
[16] = In vivo inhibition of NLRP3 in LPS/ATP-induced C57BL/6 mouse model of acute peritonitis assessed as reduction in IL-1beta level at 50 mg/kg, po preadministered with compound for 1 hrs followed by LPS stimulation for 2 hrs and measured 15 mins after ATP addition by ELISA relative to control; format: functional; conditions: time 3.25 hrs
[17] = Oral bioavailability in Sprague-Dawley rat at 10 mg/kg measured after 24 hrs by LC-MS/MS analysis; format: ADME, organism-based; conditions: in vivo
[18] = Drug concentration in blood of C57BL/6 mouse model of acute peritonitis at 3 mg/kg, po preadministered with compound for 1 hrs followed by LPS stimulation for 2 hrs and measured 15 mins after ATP addition by HPLC-MS/MS analysis; format: ADME, organism-based; conditions: whole blood, read-out: Ct
[19] = Clearance in Sprague-Dawley rat assessed as hepatic blood flow at 10 mg/kg, po or 1 mg/kg, iv measured after 24 hrs by LC-MS/MS analysis; format: ADME, organism-based, Liver; conditions: in vivo
[20] = Equilibrium solubility of compound in DMSO at pH 6.8 by shake flask method; format: physicochemical
[21] = Oral bioavailability in C57BL/6 mouse at 3 mg/kg measured after 24 hrs by LC-MS/MS analysis; format: ADME, organism-based; conditions: in vivo
[22] = In vivo inhibition of NLRP3 in LPS/ATP-induced C57BL/6 mouse model of acute peritonitis assessed as reduction in IL-1beta level at 3 mg/kg, po preadministered with compound for 1 hrs followed by LPS stimulation for 2 hrs and measured 15 mins after ATP addition by ELISA relative to control; format: functional; conditions: time 3.25 hrs
[23] = molecular target: Synaptic vesicular amine transporter (Homo sapiens, UniProt Q05940); experiment: Inhibition of VMAT-2 (unknown origin)
[24] = Half-life in C57BL/6 mouse at 3 mg/kg, po or 1 mg/kg, iv measured after 24 hrs by LC-MS/MS analysis; format: ADME, organism-based; conditions: in vivo
[25] = Half-life in Beagle dog at 1 mg/kg, po or 0.1 mg/kg, iv measured after 24 hrs by LC-MS/MS analysis; format: ADME, organism-based, Canis lupus familiaris; conditions: in vivo
[26] = Protein binding in mouse plasma; format: ADME, cell-free; conditions: read-out: PPB (converted)
[27] = Lipophilicity, logD of compound at pH 7.4; format: physicochemical; conditions: buffer
[28] = Drug concentration in blood of C57BL/6 mouse model of acute peritonitis at 30 mg/kg, po preadministered with compound for 1 hrs followed by LPS stimulation for 2 hrs and measured 15 mins after ATP addition by HPLC-MS/MS analysis; format: ADME, organism-based; conditions: whole blood, read-out: Ct
Cytochrome P450 2D6 = Cytochrome P450 2D6 (Homo sapiens, UniProt P10635); experiment: Inhibition of CYP2D6 (unknown origin); format: ADME
[29] = Volume of distribution at steady state in C57BL/6 mouse at 3 mg/kg, po or 1 mg/kg, iv measured after 24 hrs by LC-MS/MS analysis; format: ADME, organism-based; conditions: in vivo
[30] = Drug concentration in blood of C57BL/6 mouse model of acute peritonitis at 10 mg/kg, po preadministered with compound for 1 hrs followed by LPS stimulation for 2 hrs and measured 15 mins after ATP addition by HPLC-MS/MS analysis; format: ADME, organism-based; conditions: whole blood, read-out: Ct
[31] = Oral bioavailability in C57BL/6 mouse measured after 24 hrs by LC-MS/MS analysis; format: ADME, organism-based; conditions: in vivo
[32] = Drug metabolism in rat liver microsomes assessed as N-demethylation of piperidine ring mediated metabolite formation; format: ADME, Microsome
[33] = Drug metabolism in rat liver microsome assessed as thiophene oxidation mediated metabolite formation; format: ADME; conditions: microsomes
[34] = molecular target: Voltage-gated inwardly rectifying potassium channel KCNH2 (Homo sapiens, UniProt Q12809); experiment: Displacement of [3H]-dofetilide from human ERG; format: toxicity
[35] = Dose normalized AUC in Beagle dog at 1 mg/kg, po measured after 24 hrs by LC-MS/MS analysis; format: ADME, organism-based, Canis lupus familiaris; conditions: in vivo
[36] = Metabolic stability in human liver microsomes assessed as intrinsic clearance; format: ADME, Microsome; conditions: read-out: CLH
[37] = Drug metabolism in dog liver microsome assessed as thiophene oxidation mediated metabolite formation; format: ADME, Canis lupus familiaris; conditions: microsomes
[38] = Clearance in rat liver microsomes; format: ADME, Microsome; conditions: read-out: CLH
[39] = In vivo inhibition of NLRP3 in LPS/ATP-induced C57BL/6 mouse model of acute peritonitis assessed as reduction in IL-1beta level at 30 mg/kg, po preadministered with compound for 1 hrs followed by LPS stimulation for 2 hrs and measured 15 mins after ATP addition by ELISA relative to control; format: functional; conditions: time 3.25 hrs

Chain of Synaptic vesicular amine transporter (Q05940 whole entry): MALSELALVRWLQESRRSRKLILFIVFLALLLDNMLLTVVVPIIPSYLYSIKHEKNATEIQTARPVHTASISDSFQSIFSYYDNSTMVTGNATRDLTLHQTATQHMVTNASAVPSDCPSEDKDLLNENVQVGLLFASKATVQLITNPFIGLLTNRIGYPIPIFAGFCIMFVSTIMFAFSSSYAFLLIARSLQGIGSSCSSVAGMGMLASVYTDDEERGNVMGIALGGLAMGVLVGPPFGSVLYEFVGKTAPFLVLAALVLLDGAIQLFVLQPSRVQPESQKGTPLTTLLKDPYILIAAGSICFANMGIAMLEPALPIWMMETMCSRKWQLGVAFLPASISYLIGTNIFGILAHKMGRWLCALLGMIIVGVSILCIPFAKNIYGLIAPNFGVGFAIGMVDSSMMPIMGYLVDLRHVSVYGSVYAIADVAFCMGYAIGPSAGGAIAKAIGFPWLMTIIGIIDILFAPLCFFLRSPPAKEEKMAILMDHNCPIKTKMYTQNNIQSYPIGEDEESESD
Chain of Cytochrome P450 2C9 (P11712 whole entry): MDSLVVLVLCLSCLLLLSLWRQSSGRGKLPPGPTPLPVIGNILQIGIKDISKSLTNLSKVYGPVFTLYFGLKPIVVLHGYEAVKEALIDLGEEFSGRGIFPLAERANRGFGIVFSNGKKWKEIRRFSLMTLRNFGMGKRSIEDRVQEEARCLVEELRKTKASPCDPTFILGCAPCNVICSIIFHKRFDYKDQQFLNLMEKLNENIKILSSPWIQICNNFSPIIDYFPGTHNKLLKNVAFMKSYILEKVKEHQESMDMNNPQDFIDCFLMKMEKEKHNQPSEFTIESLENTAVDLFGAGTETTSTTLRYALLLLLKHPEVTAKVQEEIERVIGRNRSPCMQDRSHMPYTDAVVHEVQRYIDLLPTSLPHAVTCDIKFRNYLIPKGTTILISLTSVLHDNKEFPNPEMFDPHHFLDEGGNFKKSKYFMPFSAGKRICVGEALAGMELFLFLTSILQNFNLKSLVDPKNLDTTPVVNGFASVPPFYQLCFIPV
Chain of Cytochrome P450 2D6 (P10635 whole entry): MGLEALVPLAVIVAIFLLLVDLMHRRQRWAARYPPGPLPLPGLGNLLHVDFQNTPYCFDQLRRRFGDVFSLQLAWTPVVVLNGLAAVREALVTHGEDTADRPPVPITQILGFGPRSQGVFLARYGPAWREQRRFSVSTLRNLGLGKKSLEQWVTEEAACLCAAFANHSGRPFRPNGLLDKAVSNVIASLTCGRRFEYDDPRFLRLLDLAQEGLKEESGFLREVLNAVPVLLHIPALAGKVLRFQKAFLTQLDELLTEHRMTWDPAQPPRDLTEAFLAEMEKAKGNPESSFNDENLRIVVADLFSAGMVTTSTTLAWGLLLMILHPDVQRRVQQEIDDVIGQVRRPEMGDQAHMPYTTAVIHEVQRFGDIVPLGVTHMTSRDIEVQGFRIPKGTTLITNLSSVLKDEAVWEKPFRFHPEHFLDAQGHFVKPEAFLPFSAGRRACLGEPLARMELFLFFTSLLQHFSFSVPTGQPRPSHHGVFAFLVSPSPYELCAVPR
Chain of Cytochrome P450 3A4 (P08684 whole entry): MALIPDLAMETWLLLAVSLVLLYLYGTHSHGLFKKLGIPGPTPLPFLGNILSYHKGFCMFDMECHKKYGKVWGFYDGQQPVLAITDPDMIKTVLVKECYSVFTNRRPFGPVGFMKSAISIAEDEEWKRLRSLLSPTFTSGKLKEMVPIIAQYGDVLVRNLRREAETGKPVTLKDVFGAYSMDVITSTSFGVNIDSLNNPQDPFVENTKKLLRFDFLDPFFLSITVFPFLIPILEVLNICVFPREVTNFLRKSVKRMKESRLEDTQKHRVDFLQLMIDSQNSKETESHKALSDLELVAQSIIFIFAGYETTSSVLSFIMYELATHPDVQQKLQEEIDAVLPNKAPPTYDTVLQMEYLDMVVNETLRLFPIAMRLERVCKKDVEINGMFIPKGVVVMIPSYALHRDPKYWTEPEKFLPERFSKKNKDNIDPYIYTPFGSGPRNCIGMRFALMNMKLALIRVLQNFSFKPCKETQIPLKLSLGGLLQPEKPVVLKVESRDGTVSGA
Chain of Voltage-gated inwardly rectifying potassium channel KCNH2 (Q12809 whole entry): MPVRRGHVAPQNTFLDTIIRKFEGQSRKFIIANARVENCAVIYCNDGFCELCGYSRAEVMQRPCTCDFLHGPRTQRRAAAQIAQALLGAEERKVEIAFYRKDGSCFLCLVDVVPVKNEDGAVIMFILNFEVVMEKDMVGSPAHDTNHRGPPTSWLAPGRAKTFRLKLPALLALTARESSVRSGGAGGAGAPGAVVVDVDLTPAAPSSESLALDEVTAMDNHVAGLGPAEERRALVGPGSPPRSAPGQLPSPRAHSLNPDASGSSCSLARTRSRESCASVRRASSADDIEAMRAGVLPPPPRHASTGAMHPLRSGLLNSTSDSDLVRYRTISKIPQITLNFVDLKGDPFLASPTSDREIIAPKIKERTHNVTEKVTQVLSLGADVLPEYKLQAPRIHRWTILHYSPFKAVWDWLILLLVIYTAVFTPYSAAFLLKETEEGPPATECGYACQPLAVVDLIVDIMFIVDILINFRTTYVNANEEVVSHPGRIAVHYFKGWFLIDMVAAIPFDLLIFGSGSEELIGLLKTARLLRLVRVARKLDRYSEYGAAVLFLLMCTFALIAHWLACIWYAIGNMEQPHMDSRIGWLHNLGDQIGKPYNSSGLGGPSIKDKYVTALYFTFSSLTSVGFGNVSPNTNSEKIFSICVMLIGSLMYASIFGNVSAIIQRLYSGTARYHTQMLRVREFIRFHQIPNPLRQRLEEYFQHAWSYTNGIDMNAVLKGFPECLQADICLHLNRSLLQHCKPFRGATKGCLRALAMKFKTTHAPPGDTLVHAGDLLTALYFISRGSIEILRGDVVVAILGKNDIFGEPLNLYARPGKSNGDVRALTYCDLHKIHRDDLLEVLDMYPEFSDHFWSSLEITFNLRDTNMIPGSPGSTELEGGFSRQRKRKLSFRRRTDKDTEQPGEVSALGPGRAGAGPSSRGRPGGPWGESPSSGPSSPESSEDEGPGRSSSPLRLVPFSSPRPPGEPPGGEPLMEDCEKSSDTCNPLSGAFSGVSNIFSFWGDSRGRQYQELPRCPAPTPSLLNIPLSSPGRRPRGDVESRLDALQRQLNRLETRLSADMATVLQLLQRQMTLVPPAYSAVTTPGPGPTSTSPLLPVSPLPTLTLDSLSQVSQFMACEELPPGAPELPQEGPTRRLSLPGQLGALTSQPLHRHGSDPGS
Chain of Nuclear factor NF-kappa-B complex (P19838 1-433 limits assumed): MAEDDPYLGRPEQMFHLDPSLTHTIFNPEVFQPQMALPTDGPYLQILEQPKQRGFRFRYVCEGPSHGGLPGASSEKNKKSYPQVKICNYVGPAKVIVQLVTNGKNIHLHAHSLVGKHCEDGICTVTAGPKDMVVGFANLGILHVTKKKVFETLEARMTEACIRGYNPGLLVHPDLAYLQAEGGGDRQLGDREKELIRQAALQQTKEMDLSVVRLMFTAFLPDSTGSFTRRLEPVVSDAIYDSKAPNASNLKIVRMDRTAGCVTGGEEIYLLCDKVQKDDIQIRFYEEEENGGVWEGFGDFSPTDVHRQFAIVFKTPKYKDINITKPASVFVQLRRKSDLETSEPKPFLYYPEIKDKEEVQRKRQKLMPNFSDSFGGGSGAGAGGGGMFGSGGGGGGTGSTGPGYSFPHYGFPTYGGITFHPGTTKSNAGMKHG
Chain of Nuclear factor NF-kappa-B complex (Q00653 1-454 limits assumed): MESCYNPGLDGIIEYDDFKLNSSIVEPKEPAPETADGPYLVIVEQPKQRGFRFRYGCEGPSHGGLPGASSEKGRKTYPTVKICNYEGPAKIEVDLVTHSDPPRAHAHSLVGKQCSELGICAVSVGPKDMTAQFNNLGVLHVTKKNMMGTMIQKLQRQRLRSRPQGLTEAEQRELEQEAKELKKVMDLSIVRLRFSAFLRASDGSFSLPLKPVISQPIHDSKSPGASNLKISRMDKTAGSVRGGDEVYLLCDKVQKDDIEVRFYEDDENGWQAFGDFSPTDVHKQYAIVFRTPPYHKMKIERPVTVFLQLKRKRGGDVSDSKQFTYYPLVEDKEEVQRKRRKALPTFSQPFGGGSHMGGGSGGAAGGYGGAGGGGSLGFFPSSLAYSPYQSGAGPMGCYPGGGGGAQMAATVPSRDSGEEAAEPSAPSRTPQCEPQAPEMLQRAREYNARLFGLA
Chain of Nuclear factor NF-kappa-B complex (Q04206 whole entry): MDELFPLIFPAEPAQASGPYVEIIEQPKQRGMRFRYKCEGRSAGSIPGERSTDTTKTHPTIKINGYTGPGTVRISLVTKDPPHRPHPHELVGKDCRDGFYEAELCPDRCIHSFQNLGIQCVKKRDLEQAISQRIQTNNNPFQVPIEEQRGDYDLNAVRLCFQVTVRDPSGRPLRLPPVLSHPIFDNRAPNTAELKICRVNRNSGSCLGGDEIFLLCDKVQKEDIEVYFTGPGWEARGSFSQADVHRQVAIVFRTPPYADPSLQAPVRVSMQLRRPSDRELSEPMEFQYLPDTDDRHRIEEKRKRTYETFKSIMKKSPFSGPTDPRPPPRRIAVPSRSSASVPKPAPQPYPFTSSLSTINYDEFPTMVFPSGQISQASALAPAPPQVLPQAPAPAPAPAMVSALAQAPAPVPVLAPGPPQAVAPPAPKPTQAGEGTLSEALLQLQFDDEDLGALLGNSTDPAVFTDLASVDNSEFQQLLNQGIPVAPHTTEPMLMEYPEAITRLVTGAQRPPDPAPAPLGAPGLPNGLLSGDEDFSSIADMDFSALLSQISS

pIC50 [1]: < 4.00 | pIC50 (Cytochrome P450 2C9): < 4.60 | LBF [2]: 40% | half-life [3]: 3.5 h | Vdss [4]: 4.1 L/kg | microsomal CLint [5]: 103 µL/min/mg | Drug metabolism [6]: Metabolite_Detected | solubility thermodynamic [7]: 159 µg/mL (≈ 363 µM) | Drug metabolism [8]: Metabolite_Notdetected | AUC/dose [9]: 235 nmol·h/L | concentration at 3.25 h [10]: 1680 nM | fraction unbound [11]: 0.22 | pIC50 (Cytochrome P450 3A4): < 4.60 | fraction unbound [12]: 0.15 | Drug metabolism [14]: Metabolite_Detected | AUC/dose [15]: 712 nmol·h/L | bioavailability [17]: 63% | concentration at 3.25 h [18]: 70 nM | LBF [19]: 40% | solubility [20]: > 1000 µM | bioavailability [21]: 36% | pIC50 [23]: 5.19 | half-life [24]: 1 h | half-life [25]: 5.7 h | fraction unbound [26]: 0.03 | logD [27]: 2.3 | concentration at 3.25 h [28]: 1060 nM | pIC50 (Cytochrome P450 2D6): < 4.60 | Vdss [29]: 3.9 L/kg | concentration at 3.25 h [30]: 163 nM | bioavailability [31]: 36% | Drug metabolism [32]: Metabolite_Detected | Drug metabolism [33]: Metabolite_Notdetected | AUC/dose [35]: 2530 nmol·h/L | microsomal CLint [36]: 38 µL/min/mg | Drug metabolism [37]: Metabolite_Notdetected | microsomal CLint [38]: 100 µL/min/mg
Structure (SMILES): CN1CCC[C@@H](NC(=O)Cn2nc(C(C)(C)O)n3c(cc4sc(Cl)cc43)c2=O)C1
inhibition in vivo at 100 mg/kg [13]: 98% | inhibition in vivo at 50 mg/kg [16]: 90% | inhibition in vivo at 3 mg/kg [22]: 34% | pIC50 [34]: < 4.52 | inhibition in vivo at 30 mg/kg [39]: 91%
